Reference: US20200207782A1, “CHEMICALLY ACTIVATED WATER-SOLUBLE PRODRUG” (SUMITOMO DAINIPPON PHARMA CO., LTD, priority 2017, published 2020)
Several values for one entry are separate records, joined by “and”; a condition that tells them apart may be missing. Identical values can stand only once. Counter-ions that a name gives are not always drawn.

Assays:
[1] = Solution stability test (residual ratio and generation of active form in buffers of pH 2.0 to 9.0); format: physicochemical; design: Rate of generation of active form after 24 hours in buffer with pH of 7.4: tested at 25 µM; settings: for Residual ratio / Rate of generation of active form after 24 hours in buffer with pH of 7.4: 25° C.; for Residual ratio: 25 umol/L; for Degradation behaviour in buffers (in words): pH 2.0 to 9.0; for Rate of generation of active form after 24 hours in buffer with pH of 7.4: pH 7.4 buffer
Experimental: The test compounds were incubated at 25° C. at a concentration of 25 umol/L in a buffer prepared to have a pH of 2.0, 3.0, 5.0, 7.4, and 9.0. The compounds were measured by HPLC after 0, 3, 6, 9, 12, and 24 hours.
The buffers used at each pH are the following. • pH 2.0: 50 mmol/L glycine buffer • pH 3.0: 50 mmol/L citrate buffer • pH 5.0: 50 mmol/L citrate buffer • pH 7.4: 50 mmol/L phosphate buffer • pH 9.0: 50 mmol/L glycine buffer
The measurement conditions for HPLC are the following.
The yield of the Example and Reference Example compounds and active forms is calculated with each of the peak area of the Example and Reference Example compounds at 0 minutes and the peak area upon dissolution of the corresponding active form at 100 umol/L as 100%. The yield is denoted in terms of %

physchem = settings: thermodynamic from solid; for solubility at 24 h: pH 2, aqueous buffer
Experimental: The solubility of the water-soluble prodrugs described in the Examples and the Reference Examples was measured. […] The filtrate was measured by HPLC.

| Structure (SMILES) | Degradation behaviour in buffers (in words) [1] | Residual ratio ([1]; pH3.0 buffer, 0 hr) [%] | Residual ratio ([1]; pH3.0 buffer, 3 hr) [%] | Residual ratio ([1]; pH3.0 buffer, 6 hr) [%] | Residual ratio ([1]; pH3.0 buffer, 9 hr) [%] | Residual ratio ([1]; pH3.0 buffer, 12 hr) [%] | Residual ratio ([1]; pH3.0 buffer, 24 hr) [%] | Residual ratio ([1]; pH5.0 buffer, 0 hr) [%] | Residual ratio ([1]; pH5.0 buffer, 3 hr) [%] | Residual ratio ([1]; pH5.0 buffer, 6 hr) [%] | Residual ratio ([1]; pH5.0 buffer, 9 hr) [%] | Residual ratio ([1]; pH5.0 buffer, 12 hr) [%] | Residual ratio ([1]; pH7.4 buffer, 0 hr) [%] | Residual ratio ([1]; pH7.4 buffer, 3 hr) [%] | Residual ratio ([1]; pH7.4 buffer, 6 hr) [%] | Residual ratio ([1]; pH7.4 buffer, 9 hr) [%] | Residual ratio ([1]; pH7.4 buffer, 12 hr) [%] | Stability in solution (in words) ([1]; pH of 2.0, 25° C.) | Stability in solution (in words) ([1]; pH of 3.0, 25° C.) | solubility at 24 h (physchem) [µg/mL] | further results |
| --- | --- | --- | --- | --- | --- | --- | --- | --- | --- | --- | --- | --- | --- | --- | --- | --- | --- | --- | --- | --- | --- |
| CN1CC[C@H](c2c(OC(=O)N(C)CCN)cc(O)c3c(=O)cc(-c4ccccc4Cl)oc23)[C@H](O)C1 [Example 8, 2-(2-chlorophenyl)-5-hydroxy-8-[(3S,4R)-3-hydroxy-1-methylpiperidin-4-yl]-4-oxo-4H-chromen-7-yl (2-aminoethyl) methylcarbamate ditrifluoroacetate] | pH dependent and chemical degradation progressed | 100 | 100 | 100 | 100 | 100 | 100 | 100 | 98.2 | 96.1 | 94.4 | 92.4 | 76.4 | 0.1 | 0.0 | 0.1 | 0.2 | sufficient stability | sufficient stability |  | Residual ratio ([1]; pH2.0 buffer, 0 hr): 100%; Residual ratio ([1]; pH2.0 buffer, 3 hr): 100%; Residual ratio ([1]; pH2.0 buffer, 6 hr): 100%; Residual ratio ([1]; pH2.0 buffer, 9 hr): 100%; Residual ratio ([1]; pH2.0 buffer, 12 hr): 100%; Residual ratio ([1]; pH2.0 buffer, 24 hr): 100%; Residual ratio ([1]; pH5.0 buffer, 24 hr): 85% and 85.2%; Residual ratio ([1]; pH7.4 buffer, 24 hr): 0.5%; Rate of generation of active form after 24 hours in buffer with pH of 7.4 [1]: 88%; Residual ratio ([1]; pH9.0 buffer, 0 hr): 9.7%; Residual ratio ([1]; pH9.0 buffer, 3 hr): 0.2%; Residual ratio ([1]; pH9.0 buffer, 6 hr): 0.2%; Residual ratio ([1]; pH9.0 buffer, 9 hr): 0.1%; Residual ratio ([1]; pH9.0 buffer, 12 hr): 0.1%; Residual ratio ([1]; pH9.0 buffer, 24 hr): 0.0%; solubility (physchem; pH 5, aqueous buffer): > 10000 µg/mL |
| NCCCNC(=O)Oc1c(OC(=O)NCCCN)c(-c2ccccc2)c2c(c1-c1ccccc1)OCO2 [Example 6, 4,7-Diphenyl-1,3-benzodioxole-5,6-diyl bis[(3-aminopropyl)carbamate]dihydrochloride] | pH dependent and chemical degradation progressed | 100 | 100 | 100 | 100 | 100 | 100 | 100 | 100 | 99.8 | 99.6 | 99.5 | 96.8 | 65.8 | 45.2 | 31.4 | 22.2 | very stable | very stable | > 10000 | Residual ratio ([1]; pH2.0 buffer, 0 hr): 100%; Residual ratio ([1]; pH2.0 buffer, 3 hr): 100%; Residual ratio ([1]; pH2.0 buffer, 6 hr): 100%; Residual ratio ([1]; pH2.0 buffer, 9 hr): 100%; Residual ratio ([1]; pH2.0 buffer, 12 hr): 100%; Residual ratio ([1]; pH2.0 buffer, 24 hr): 100%; Residual ratio ([1]; pH5.0 buffer, 24 hr): 99.5%; Residual ratio ([1]; pH7.4 buffer, 24 hr): 17% and 16.5%; Residual ratio ([1]; pH9.0 buffer, 0 hr): 10.4%; Residual ratio ([1]; pH9.0 buffer, 3 hr): 0.4%; Residual ratio ([1]; pH9.0 buffer, 6 hr): 0.7%; Residual ratio ([1]; pH9.0 buffer, 9 hr): 0.7%; Residual ratio ([1]; pH9.0 buffer, 12 hr): 0.9%; Residual ratio ([1]; pH9.0 buffer, 24 hr): 0.9%; Stability in solution (in words) ([1]; pH of 5.0, 25° C.): very stable |
| C[C@H]1COc2c1c(OC(=O)NCCNCC(=O)O)c(OC(=O)NCCNCC(=O)O)c1c3c(ccc21)C(C)(C)CCC3 [Example 12, 2,2′-{[(1R)-1,6,6-trimethyl-1,2,6,7,8,9-hexahydrophenanthro [1,2-b]furan-10,11-diyl]bis(oxycarbonylazanediylethane-2,1-diylazanediyl)}diacetic acid dihydrochloride] | pH dependent and chemical degradation progressed | 100 | 99.2 | 98.9 | 98.6 | 98.4 | 98.3 | 100 | 99.1 | 98.1 | 97.1 | 96.4 | 100 | 9.8 | 1.7 | 1.4 | 0 | stable | stable | > 10000 | Residual ratio ([1]; pH2.0 buffer, 0 hr): 100%; Residual ratio ([1]; pH2.0 buffer, 3 hr): 99.4%; Residual ratio ([1]; pH2.0 buffer, 6 hr): 98.9%; Residual ratio ([1]; pH2.0 buffer, 9 hr): 98.7%; Residual ratio ([1]; pH2.0 buffer, 12 hr): 98.5%; Residual ratio ([1]; pH2.0 buffer, 24 hr): 98.5%; Residual ratio ([1]; pH5.0 buffer, 24 hr, dihydrochloride): 93% and 93.3%; Residual ratio ([1]; pH7.4 buffer, 24 hr): 0%; Rate of generation of active form after 24 hours in buffer with pH of 7.4 [1]: 11% |
| CC1(C)CCc2c(OC(=O)NCCNCC(=O)O)c(OC(=O)NCCNCC(=O)O)c3ccccc3c2O1 [Example 4, 2,2′-[(2,2-Dimethyl-3,4-dihydro-2H-benzo[H]chromene-5,6-diyl)bis(oxycarbonyliminoethane-2,1-diylimino)]diacetic acid dihydrochloride] | pH dependent and chemical degradation progressed |  |  |  |  |  |  |  |  |  |  |  |  |  |  |  |  | sufficient stability | sufficient stability | > 10000 |  |
| C[C@H]1COc2c1c(OC(=O)NCCCNCC(=O)O)c(OC(=O)NCCCNCC(=O)O)c1c3c(ccc21)C(C)(C)CCC3 [Example 13, 2,2′-{[(1R)-1,6,6-trimethyl-1,2,6,7,8,9-hexahydrophenanthro[1,2-b]furan-10,11-diyl]bis(oxycarbonylazanediylpropane-3,1-diylazanediyl)}diacetic acid dihydrochloride] | pH dependent and chemical degradation progressed | 100 | 100 | 100 | 99.8 | 99.6 | 100 | 100 | 99.4 | 99.2 | 99.0 | 98.6 | 100 | 61.8 | 42.6 | 28.5 | 19.1 | stable | stable | > 10000 | Residual ratio ([1]; pH5.0 buffer, 24 hr): 98.4%; Residual ratio ([1]; pH7.4 buffer, 24 hr, dihydrochloride): 6% and 6.1%; Rate of generation of active form after 24 hours in buffer with pH of 7.4 [1]: 5%; Residual ratio ([1]; pH9.0 buffer, 0 hr): 100%; Residual ratio ([1]; pH9.0 buffer, 3 hr): 99.7%; Residual ratio ([1]; pH9.0 buffer, 6 hr): 99.4%; Residual ratio ([1]; pH9.0 buffer, 9 hr): 99.3%; Residual ratio ([1]; pH9.0 buffer, 12 hr): 99.1%; Residual ratio ([1]; pH9.0 buffer, 24 hr): 100%; Stability in solution (in words) ([1]; pH of 5.0, 25° C.): stable |
